Paper PMC12095047, “Transport of phenoxyacetic acid herbicides by PIN-FORMED auxin transporters” (Nature Plants, 2025)
Values joined by “and” are separate entries in the source; they are usually repeats but may differ in a detail not shown here. Equal values may be shown once.

Assays:
PIN8 [1] = biological target: T1, PIN8 (Arabidopsis thaliana, UniProt Q9LFP6); assay: Xenopus oocyte efflux assay, PIN8; type: cell-based; conditions: for Rel. 2,4-D transport rate: [3H]-2,4-D export by PIN8 from oocytes; for Rel. 2,4-D transport rate / Rel. IAA transport rate: individual experiments; for Rel. IAA transport rate: [3H]-IAA export by PIN8 from oocytes
T1 construct: made in house
T1 sequence (Q9LFP6 1-367): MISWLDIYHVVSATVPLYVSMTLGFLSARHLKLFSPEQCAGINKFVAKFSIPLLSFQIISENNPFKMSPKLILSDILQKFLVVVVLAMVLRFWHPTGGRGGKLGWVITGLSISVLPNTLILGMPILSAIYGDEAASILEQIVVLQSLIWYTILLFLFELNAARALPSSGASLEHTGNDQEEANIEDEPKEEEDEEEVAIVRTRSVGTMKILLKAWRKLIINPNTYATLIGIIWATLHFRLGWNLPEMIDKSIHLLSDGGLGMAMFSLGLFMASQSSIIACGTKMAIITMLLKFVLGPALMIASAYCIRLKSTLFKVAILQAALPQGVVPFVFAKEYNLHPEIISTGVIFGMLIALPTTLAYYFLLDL
Experimental: (§1) Oocyte efflux experiments were carried out as described[12],[20],[26]. Briefly, oocytes were injected with 150 ng transporter complementary RNA without or with 75 ng kinase cRNA. [^3H]-IAA (25 Ci mmol^−1) and [^3H]-4-CPA (37.7 Ci mmol^−1) was purchased from RC Tritec. [^3H]-2,4-D (25 Ci mmol^−1) was purchased from ARC. Oocytes were injected with substrate to reach an internal concentration of 1 µM, corresponding to 100%. Residual radioactivity was determined for each individual oocyte by liquid scintillation counting after the time points indicated and are expressed relative to the initial 100%. Each time point represents the mean and s.e. of ten oocytes. To calculate the relative transport rate in percentage per minute, linear regression was performed. Each data point in Fig. 1b,c and Extended Data Fig. 2b,e represents the transport rate of one biological replicate using oocytes collected from different Xenopus females.

A. thaliana PIN3 = biological target: T2, A. thaliana PIN3 (Arabidopsis thaliana, UniProt Q9S7Z8); assay: Xenopus oocyte efflux assay, PIN3 with or without PID kinase; type: cell-based; conditions: for Rel. 2,4-D transport rate (% exported/min): replicates; for Rel. 2,4-D transport rate: PIN3 oocytes, individual experiments
T2 construct: expressed in transfected cells; host or cells: Xenopus oocytes (cRNA injection)
T2 sequence (Q9S7Z8 1-640): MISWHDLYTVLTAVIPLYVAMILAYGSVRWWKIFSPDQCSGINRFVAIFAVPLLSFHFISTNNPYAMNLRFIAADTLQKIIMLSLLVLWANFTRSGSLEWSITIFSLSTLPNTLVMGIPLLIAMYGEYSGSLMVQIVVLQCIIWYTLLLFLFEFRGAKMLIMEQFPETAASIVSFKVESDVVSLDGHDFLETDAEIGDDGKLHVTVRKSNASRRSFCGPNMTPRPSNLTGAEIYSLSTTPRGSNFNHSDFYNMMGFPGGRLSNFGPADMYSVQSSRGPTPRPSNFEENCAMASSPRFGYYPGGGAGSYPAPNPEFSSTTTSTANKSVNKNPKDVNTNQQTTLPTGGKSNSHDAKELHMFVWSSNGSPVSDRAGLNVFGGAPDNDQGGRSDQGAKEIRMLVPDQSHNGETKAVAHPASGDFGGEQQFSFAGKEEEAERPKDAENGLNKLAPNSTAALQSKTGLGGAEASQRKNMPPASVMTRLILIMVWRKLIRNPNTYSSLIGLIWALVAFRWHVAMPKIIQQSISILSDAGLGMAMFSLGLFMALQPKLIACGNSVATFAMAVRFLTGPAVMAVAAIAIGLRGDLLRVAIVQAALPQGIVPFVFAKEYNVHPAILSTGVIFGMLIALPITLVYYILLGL
Experimental: as §1

PIN8 [2] = biological target: T1, PIN8; parameters: method as in PMID 35768502; conditions: read-out: IAA binding affinity KD, previously described; cited from earlier work

| Compound | transport rate of export from oocytes relative to IAA (PIN8 [1]; PIN8, NPA-sensitive export) | Rel. 2,4-D transport rate (PIN8 [1]; NPA + (10 μM)) | Rel. 2,4-D transport rate (PIN8 [1]; NPA -) | Rel. 2,4-D transport rate (% exported/min) (A. thaliana PIN3; PID +) | Rel. 2,4-D transport rate (% exported/min) (A. thaliana PIN3; PID -) | export rate relative to the IAA transport rate (A. thaliana PIN3; PIN3 activated by PID kinase, NPA-sensitive) | Rel. 2,4-D transport rate (A. thaliana PIN3; PID +, NPA + (10 μM)) | Rel. 2,4-D transport rate (A. thaliana PIN3; PID +, NPA -) | Rel. 2,4-D transport rate (A. thaliana PIN3; PID -, NPA + (10 μM)) | Rel. 2,4-D transport rate (A. thaliana PIN3; PID -, NPA -) | Rel. IAA transport rate (PIN8 [1]; NPA + (10 μM)) | Rel. IAA transport rate (PIN8 [1]; NPA -) | Rel. IAA transport rate (% exported/min) (A. thaliana PIN3; PID +, NPA -, single experiments) | Kd (PIN8 [2]) [µM] |
| --- | --- | --- | --- | --- | --- | --- | --- | --- | --- | --- | --- | --- | --- | --- |
| O=C(O)COc1ccc(Cl)cc1Cl [2,4-D, 2,4-dichlorophenoxyacetic acid] | about half of that determined for IAA | 0.7325 % exported/min and 0.3331 % exported/min and 0.3715 % exported/min and 0.009798 % exported/min | 1.122 % exported/min and 0.7012 % exported/min and 0.7258 % exported/min and 0.8004 % exported/min | 2.469 % exported/min and 1.491 % exported/min and 1.857 % exported/min | 1.104 % exported/min and -0.5881 % exported/min and -1.06 % exported/min | about half of the IAA transport rate | 0.306 % exported/min and 0.1671 % exported/min and -0.318 % exported/min | 2.085 % exported/min and 2.202 % exported/min and 1.56 % exported/min | 0.4736 % exported/min and -0.2953 % exported/min and -0.2713 % exported/min | -0.1695 % exported/min and 0.4151 % exported/min and -0.6296 % exported/min |  |  |  |  |
| O=C(O)Cc1c[nH]c2ccccc12 [IAA, indole-3-acetic acid] |  |  |  |  |  |  |  |  |  |  | 0.4862 % exported/min and 0.4056 % exported/min and 0.4406 % exported/min | 2.069 % exported/min and 2.225 % exported/min and 1.917 % exported/min | 5.59 % exported/min and 5.28 % exported/min and 4.145 % exported/min | 40 ± 15 |
